Data as given in PubChem BioAssay AID1963976 (Molecular Pharmacology Branch, DTP, NCI, 2024).
pIC50: −log10 of the molar value.

Test system: 435261-313-R-J1-PDC tumor spheroid viability
Assay: Anticancer human tumor 435261-313-R-J1-PDC patient-derived colon adenocarcinoma cell line growth inhibition [PI3K]
Conditions: spheroids with HUVEC and MSC; for pIC50: curve of first compound; for viability, T/C: stronger effect = lower value
In short: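 Combination activity was assessed by viability in multicellular tumor spheroids carrying HUVEC and MSC components. Agents were tested with PI3K inhibitors from a Cmax-based top dose (or 10 microM) downward in half-log increments.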

[1] = second compound 0.0316 µM, first compound 0.000316 µM
[2] = second compound 0.0316 µM, first compound 0.001 µM
[3] = second compound 0.0316 µM, first compound 0.00316 µM
[4] = second compound 0.0316 µM, first compound 0.01 µM
[5] = second compound 0.0316 µM, first compound 0.0316 µM
[6] = second compound 0.0316 µM, first compound 0.1 µM
[7] = second compound 0.1 µM, first compound 0.000316 µM
[8] = second compound 0.1 µM, first compound 0.001 µM
[9] = second compound 0.1 µM, first compound 0.00316 µM
[10] = second compound 0.1 µM, first compound 0.01 µM
[11] = second compound 0.1 µM, first compound 0.0316 µM
[12] = second compound 0.1 µM, first compound 0.1 µM
[13] = second compound 0.316 µM, first compound 0.000316 µM
[14] = second compound 0.316 µM, first compound 0.001 µM
[15] = second compound 0.316 µM, first compound 0.00316 µM
[16] = second compound 0.316 µM, first compound 0.01 µM
[17] = second compound 0.316 µM, first compound 0.0316 µM
[18] = second compound 0.316 µM, first compound 0.1 µM
[19] = second compound 1 µM, first compound 0.000316 µM
[20] = second compound 1 µM, first compound 0.001 µM
[21] = second compound 1 µM, first compound 0.00316 µM
[22] = second compound 1 µM, first compound 0.01 µM
[23] = second compound 1 µM, first compound 0.0316 µM
[24] = second compound 1 µM, first compound 0.1 µM
[25] = second compound 0.00316 µM, first compound 0.0316 µM
[26] = second compound 0.00316 µM, first compound 0.1 µM
[27] = second compound 0.01 µM, first compound 0.0316 µM
[28] = second compound 0.01 µM, first compound 0.1 µM
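Further: spheroids exposed to compounds for 7 days.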

Structure (SMILES): CC(=O)c1c(C)c2cnc(Nc3ccc(N4CCNCC4)cn3)nc2n(C2CCCC2)c1=O + Cc1nc(NC(=O)N2CCCC2C(N)=O)sc1-c1ccnc(C(C)(C)C(F)(F)F)c1
- pIC50 (second compound 0.0316 µM): < 7.00
- pIC50 (second compound 0.1 µM): < 7.00
- pIC50 (second compound 0.316 µM): 9.50
- pIC50 (second compound 1 µM): > 9.50
- pIC50 (second compound 3.16 µM): > 9.50
- pIC50 (second compound 10 µM): > 9.50
- viability, T/C [1]: 61.5%
- viability, T/C [2]: 91.9%
- viability, T/C [3]: 96.5%
- viability, T/C [4]: 66%
- viability, T/C [5]: 88.5%
- viability, T/C [6]: 59.1%
- viability, T/C [7]: 68%
- viability, T/C [8]: 69.4%
- viability, T/C [9]: 69.5%
- viability, T/C [10]: 69.5%
- viability, T/C [11]: 74.7%
- viability, T/C [12]: 66.1%
- viability, T/C [13]: 40.9%
- viability, T/C [14]: 60.9%
- viability, T/C [15]: 40.9%
- viability, T/C [16]: 52.5%
- viability, T/C [17]: 41.3%
- viability, T/C [18]: 32.5%
- viability, T/C [19]: 26.9%
- viability, T/C [20]: 27.5%
- viability, T/C [21]: 35.2%
- viability, T/C [22]: 33.5%
- viability, T/C [23]: 26.6%
- viability, T/C [24]: 21.2%
- viability, T/C (second compound 3.16 µM, first compound 0.000316 µM): 14.7%
- viability, T/C (second compound 3.16 µM, first compound 0.001 µM): 14.2%
- viability, T/C (second compound 3.16 µM, first compound 0.00316 µM): 13.9%
- viability, T/C (second compound 3.16 µM, first compound 0.01 µM): 16.8%
- viability, T/C (second compound 3.16 µM, first compound 0.0316 µM): 16.9%
- viability, T/C (second compound 3.16 µM, first compound 0.1 µM): 15.9%
- viability, T/C (second compound 10 µM, first compound 0.000316 µM): 10.2%
- viability, T/C (second compound 10 µM, first compound 0.001 µM): 7.93%
- viability, T/C (second compound 10 µM, first compound 0.00316 µM): 7.66%
- viability, T/C (second compound 10 µM, first compound 0.01 µM): 9.02%
- viability, T/C (second compound 10 µM, first compound 0.0316 µM): 10.4%
- viability, T/C (second compound 10 µM, first compound 0.1 µM): 5.66%

Structure (SMILES): Cn1ncnc1[C@H]1c2n[nH]c(=O)c3cc(F)cc(c23)N[C@@H]1c1ccc(F)cc1 + COc1c(OCCCN2CCOCC2)ccc2c3n(c(=NC(=O)c4cnc(N)nc4)nc12)CCN3
- pIC50 (second compound 0.00316 µM): 7.32
- pIC50 (second compound 0.01 µM): 9.05
- pIC50 (second compound 0.0316 µM): > 9.50
- pIC50 (second compound 0.1 µM): > 9.50
- pIC50 (second compound 0.316 µM): > 9.50
- pIC50 (second compound 1 µM): > 9.50
- viability, T/C (second compound 0.00316 µM, first compound 0.000316 µM): 87%
- viability, T/C (second compound 0.00316 µM, first compound 0.001 µM): 41.6%
- viability, T/C (second compound 0.00316 µM, first compound 0.00316 µM): 76%
- viability, T/C (second compound 0.00316 µM, first compound 0.01 µM): 66.4%
- viability, T/C [25]: 55%
- viability, T/C [26]: 39%
- viability, T/C (second compound 0.01 µM, first compound 0.000316 µM): 62.5%
- viability, T/C (second compound 0.01 µM, first compound 0.001 µM): 51%
- viability, T/C (second compound 0.01 µM, first compound 0.00316 µM): 36.7%
- viability, T/C (second compound 0.01 µM, first compound 0.01 µM): 52.7%
- viability, T/C [27]: 58.7%
- viability, T/C [28]: 35%
- viability, T/C [1]: 24.6%
- viability, T/C [2]: 23%
- viability, T/C [3]: 27.1%
- viability, T/C [4]: 21.2%
- viability, T/C [5]: 21.9%
- viability, T/C [6]: 22.5%
- viability, T/C [7]: 17.3%
- viability, T/C [8]: 16.6%
- viability, T/C [9]: 20.1%
- viability, T/C [10]: 15.8%
- viability, T/C [11]: 16.8%
- viability, T/C [12]: 14.4%
- viability, T/C [13]: 8.3%
- viability, T/C [14]: 7.7%
- viability, T/C [15]: 6.69%
- viability, T/C [16]: 7.31%
- viability, T/C [17]: 8.06%
- viability, T/C [18]: 7.38%
- viability, T/C [19]: 3.97%
- viability, T/C [20]: 3.84%
- viability, T/C [21]: 3.78%
- viability, T/C [22]: 3.5%
- viability, T/C [23]: 4.54%
- viability, T/C [24]: 2.9%

Structure (SMILES): CC(Cn1ccc(-c2ccc(C#N)c(Cl)c2)n1)NC(=O)c1cc(C(C)O)[nH]n1 (stereo unspecified) + CC(Nc1ccc2c(c1)OCCn1cc(N3C(=O)OCC3C(F)F)nc1-2)C(N)=O
- pIC50 (second compound 0.00316 µM): < 5.00
- pIC50 (second compound 0.01 µM): < 5.00
- pIC50 (second compound 0.0316 µM): < 5.00
- pIC50 (second compound 0.1 µM): > 7.50
- pIC50 (second compound 0.316 µM): > 7.50
- pIC50 (second compound 1 µM): > 7.50
- viability, T/C [25]: 75.6%
- viability, T/C [26]: 79.1%
- viability, T/C (second compound 0.00316 µM, first compound 0.316 µM): 93.8%
- viability, T/C (second compound 0.00316 µM, first compound 1 µM): 106%
- viability, T/C (second compound 0.00316 µM, first compound 3.16 µM): 94.3%
- viability, T/C (second compound 0.00316 µM, first compound 10 µM): 106%
- viability, T/C [27]: 53.1%
- viability, T/C [28]: 90.6%
- viability, T/C (second compound 0.01 µM, first compound 0.316 µM): 105%
- viability, T/C (second compound 0.01 µM, first compound 1 µM): 106%
- viability, T/C (second compound 0.01 µM, first compound 3.16 µM): 82.4%
- viability, T/C (second compound 0.01 µM, first compound 10 µM): 95.1%
- viability, T/C [5]: 74.5%
- viability, T/C [6]: 78.5%
- viability, T/C (second compound 0.0316 µM, first compound 0.316 µM): 93%
- viability, T/C (second compound 0.0316 µM, first compound 1 µM): 77.4%
- viability, T/C (second compound 0.0316 µM, first compound 3.16 µM): 95.9%
- viability, T/C (second compound 0.0316 µM, first compound 10 µM): 86.2%
- viability, T/C [11]: 41.5%
- viability, T/C [12]: 54.3%
- viability, T/C (second compound 0.1 µM, first compound 0.316 µM): 40.1%
- viability, T/C (second compound 0.1 µM, first compound 1 µM): 44%
- viability, T/C (second compound 0.1 µM, first compound 3.16 µM): 46.2%
- viability, T/C (second compound 0.1 µM, first compound 10 µM): 53.8%
- viability, T/C [17]: 28.6%
- viability, T/C [18]: 24.6%
- viability, T/C (second compound 0.316 µM, first compound 0.316 µM): 20.2%
- viability, T/C (second compound 0.316 µM, first compound 1 µM): 21.7%
- viability, T/C (second compound 0.316 µM, first compound 3.16 µM): 25.9%
- viability, T/C (second compound 0.316 µM, first compound 10 µM): 27.5%
- viability, T/C [23]: 17.1%
- viability, T/C [24]: 17%
- viability, T/C (second compound 1 µM, first compound 0.316 µM): 18.3%
- viability, T/C (second compound 1 µM, first compound 1 µM): 19.2%
- viability, T/C (second compound 1 µM, first compound 3.16 µM): 16.9%
- viability, T/C (second compound 1 µM, first compound 10 µM): 20.5%
